Experimental data from patent US11505553B2, “2-(Het)aryl-substituted fused heterocycle derivatives as pesticides” (Bayer Aktiengesellschaft, priority 2017, dated 2022).

Tests used:
Format in all cases: in vivo
Boophilus microplus = Boophilus microplus injection test; conditions: application rate 20 μg/animal, laying of fertile eggs assessed after 7 days
Protocol: Solvent: dimethyl sulfoxide To produce a suitable active ingredient formulation, 10 mg of active ingredient are mixed with 0.5 ml of solvent and the concentrate is diluted to the desired concentration with solvent. 1 μl of the active ingredient solution is injected into the abdomen of 5 engorged adult female cattle ticks (Boophilus microplus). The animals are transferred into dishes and kept in a climate-controlled room. Efficacy is assessed after 7 days by laying of fertile eggs. Eggs which are not visibly fertile are stored in a climate-controlled cabinet until the larvae hatch after about 42 days. An efficacy of 100% means that none of the ticks has laid any fertile eggs; 0% means that all the eggs are fertile.

Ctenocephalides felis [1] = experiment: Ctenocephalides felis oral test; conditions: 48 h, application rate 100 ppm in citrated cattle blood, after 2 days, read-out: efficacy (kill)
Protocol: Solvent: dimethyl sulfoxide To produce a suitable active ingredient formulation, 10 mg of active ingredient are mixed with 0.5 ml of dimethyl sulfoxide. Dilution with citrated cattle blood gives the desired concentration. About 20 unfed adult cat fleas (Ctenocephalides felis) are placed into a chamber which is closed at the top and bottom with gauze. A metal cylinder whose bottom end is closed with parafilm is placed onto the chamber. The cylinder contains the blood/active ingredient formulation, which can be imbibed by the fleas through the parafilm membrane. After 2 days, the kill in % is determined. 100% means that all of the fleas have been killed; 0% means that none of the fleas have been killed.

Myzus persicae [2] = experiment: Myzus persicae oral test; conditions: 120 h, after 5 days, read-out: efficacy; for pest or weed control at 0.8 ppm: application rate 0.8 ppm; for pest or weed control at 4 ppm: application rate 4 ppm
Protocol: Solvent: 100 parts by weight of acetone To produce a suitable active ingredient formulation, 1 part by weight of active ingredient is dissolved with the stated parts by weight of solvent and made up to the desired concentration with water. 50 μl of the active ingredient preparation are transferred into microtitre plates and made up to a final volume of 200 μl with 150 μl of IPL41 insect medium (33%+15% sugar). Subsequently, the plates are sealed with parafilm, which a mixed population of green peach aphids (Myzus persicae) within a second microtitre plate is able to puncture and imbibe the solution. After 5 days, the efficacy in % is determined. 100% means that all the aphids have been killed; 0% means that no aphids have been killed.

Myzus persicae [3] = experiment: Myzus persicae spray test; conditions: foliar, 120 h, Chinese cabbage leaf discs, after 5 days, read-out: efficacy; for pest or weed control at 100 g/ha: application rate 100 g/ha; for pest or weed control at 20 g/ha: application rate 20 g/ha
Protocol: (§1) Solvent: 78 parts by weight of acetone • • 1.5 parts by weight of dimethylformamide Emulsifier: alkylaryl polyglycol ether To produce a suitable active ingredient formulation, 1 part by weight of active ingredient is dissolved with the specified parts by weight of solvent and made up to the desired concentration with water containing an emulsifier concentration of 1000 ppm. To produce further test concentrations, the formulation is diluted with emulsifier-containing water. Discs of Chinese cabbage leaves (Brassica pekinensis) infested by all stages of the green peach aphid (Myzus persicae) are sprayed with an active ingredient formulation of the desired concentration. After 5 days, the efficacy in % is determined. 100% means that all the aphids have been killed; 0% means that no aphids have been killed.

Myzus persicae [4] = experiment: Myzus persicae spray test (MYZUPE S), bell pepper plants; conditions: 144 h, 6 dat, read-out: % efficacy
Protocol: Solvent: 14 parts by weight of dimethylformamide Emulsifier: alkylaryl polyglycol ether To produce an appropriate active ingredient formulation, 1 part by weight of active ingredient is dissolved with the stated parts by weight of solvent and made up with water containing an emulsifier concentration of 1000 ppm until the desired concentration is attained. For production of further test concentrations, the mixture is diluted with emulsifier-containing water. If addition of ammonium salts or/and penetrants is required, these are each added to the preparation solution in a concentration of 1000 ppm. Bell pepper plants (Capsicum annuum) severely infested by the green peach aphid (Myzus persicae) are treated by spraying with the active ingredient formulation in the desired concentration. After the desired time, the kill in % is determined. 100% means that all animals have been killed; 0% means that no animals have been killed.

Ctenocephalides felis [5] = experiment: Ctenocephalides felis in vitro contact test with adult cat fleas; conditions: application rate 5 μg/cm^2 (=500 g/ha), after 48 h, adult cat fleas dead or moribund, read-out: efficacy
Protocol: For the coating of the test tubes, 9 mg of active ingredient are first dissolved in 1 ml of acetone p.a. and then diluted to the desired concentration with acetone p.a. 250 μl of the solution are distributed homogeneously on the inner walls and the base of a 25 ml glass tube by turning and rocking on an orbital shaker (rocking rotation at 30 rpm for 2 h). With 900 ppm of active ingredient solution and internal surface area 44.7 cm^2, given homogeneous distribution, an area-based dose of 5 μg/cm^2 is achieved. After the solvent has evaporated off, the tubes are populated with 5-10 adult cat fleas (Ctenocephalides felis), sealed with a perforated plastic lid and incubated in a horizontal position at room temperature and ambient humidity. After 48 h, efficacy is determined. To this end, the tubes are stood upright and the fleas are knocked to the base of the tube. Fleas which remain motionless at the base or move in an uncoordinated manner are considered to be dead or moribund. […] 100% efficacy means that all the fleas were dead or moribund. 0% efficacy means that no fleas were harmed.

Lucilia cuprina = Lucilia cuprina test; conditions: 48 h, application rate 100 ppm, L1 larvae, after 2 days, read-out: efficacy (kill)
Protocol: Solvent: dimethyl sulfoxide To produce a suitable active ingredient formulation, 10 mg of active ingredient are mixed with 0.5 ml of dimethyl sulfoxide, and the concentrate is diluted with water to the desired concentration. About 20 L1 larvae of the Australian sheep blowfly (Lucilia cuprina) are transferred into a test vessel containing minced horsemeat and the active ingredient formulation of the desired concentration. After 2 days, the kill in % is determined. 100% means that all the larvae have been killed; 0% means that no larvae have been killed.

Meloidogyne incognita = Meloidogyne incognita test; conditions: 336 h, application rate 20 ppm, formation of galls on lettuce after 14 days, read-out: nematicidal efficacy
Protocol: Solvent: 125.0 parts by weight of acetone To produce a suitable active ingredient formulation, 1 part by weight of active ingredient is mixed with the stated amount of solvent and the concentrate is diluted to the desired concentration with water. Vessels are filled with sand, active ingredient solution, an egg/larvae suspension of the southern root-knot nematode (Meloidogyne incognita) and lettuce seeds. The lettuce seeds germinate and the plants develop. The galls develop on the roots. After 14 days, the nematicidal efficacy in % is determined by the formation of galls. 100% means that no galls were found; 0% means that the number of galls on the treated plants corresponds to the untreated control.

Phaedon cochleariae [6] = experiment: Phaedon cochleariae spray test; conditions: 168 h, application rate 100 g/ha, larvae, after 7 days, read-out: efficacy
Protocol: as §1, with “Solvent: 78.0” for “Solvent: 78”, “pekinensis)” for “pekinensis) infested by all stages of the green peach aphid (Myzus persicae)”, “desired concentration and, after drying, populated with larvae of the mustard beetle (Phaedon cochleariae).” for “desired concentration.”, “After 7” for “After 5”, “the beetle larvae” for “the aphids”, “no beetle larvae” for “no aphids”

Phaedon cochleariae [7] = experiment: Phaedon cochleariae spray test (PHAECO), contrastive examples; conditions: 168 h, 7 dat, read-out: % efficacy
Protocol: Solvent: 78.0 parts by weight of acetone • • 1.5 parts by weight of dimethylformamide Emulsifier: alkylaryl polyglycol ether To produce an appropriate active ingredient formulation, 1 part by weight of active ingredient is dissolved with the stated parts by weight of solvent and made up with water containing an emulsifier concentration of 1000 ppm until the desired concentration is attained. For production of further test concentrations, the mixture is diluted with emulsifier-containing water. Discs of chinese cabbage leaves (Brassica pekinensis) are sprayed with an active ingredient formulation of the desired concentration and, after drying, populated with larvae of the mustard beetle (Phaedon cochleariae). After the desired time, the efficacy in % is determined. 100% means that all beetle larvae have been killed; 0% means that no beetle larvae have been killed.

Myzus persicae [8] = experiment: Myzus persicae spray test (MYZUPE), contrastive examples; conditions: 120 h, 5 dat, read-out: % efficacy
Protocol: as §1, with “78.0” for “78”, “chinese” for “Chinese”, “the desired time,” for “5 days,”, “all” for “all the”

Nilaparvata lugens = Nilaparvata lugens spray test (NILALU); conditions: 96 h, 4 dat, read-out: % efficacy
Protocol: Solvent: 52.5 parts by weight of acetone • 7 parts by weight of dimethylformamide
Emulsifier: alkylaryl polyglycol ether
To produce an appropriate active ingredient formulation, 1 part by weight of active ingredient is dissolved with the stated parts by weight of solvent and made up with water containing an emulsifier concentration of 1000 ppm until the desired concentration is attained. For production of further test concentrations, the mixture is diluted with emulsifier-containing water. If addition of ammonium salts or/and penetrants is required, these are each added to the preparation solution in a concentration of 1000 ppm.
Rice plants (Oryza sativa) are sprayed with an active ingredient formulation of the desired concentration and then populated with larvae of the rice cicada (Nilaparvata lugens).
After the desired time, the efficacy in % is determined. 100% means that all rice cicadas have been killed; 0% means that no rice cicadas have been killed.

Compound | efficacy (Boophilus microplus) [%] | pest or weed control at 100 ppm (Ctenocephalides felis [1]) [%] | pest or weed control at 0.8 ppm (Myzus persicae [2]) [%] | pest or weed control at 4 ppm (Myzus persicae [2]) [%] | pest or weed control at 100 g/ha (Myzus persicae [3]) [%] | Emax at 0.8 ppm (Myzus persicae [4]) [%] | pest or weed control at 5 µg/cm2, 500 g/ha (Ctenocephalides felis [5]) [%] | pest or weed control at 100 ppm (Lucilia cuprina) [%] | pest or weed control at 20 ppm (Meloidogyne incognita) [%] | pest or weed control at 20 g/ha (Myzus persicae [3]) [%] | pest or weed control at 100 g/ha (Phaedon cochleariae [6]) [%] | Emax at 4 g/ha (Phaedon cochleariae [7]; 4 g/ha) [%] | Emax at 20 g/ha (Phaedon cochleariae [7]) [%] | Emax at 100 g/ha (Phaedon cochleariae [7]) [%] | Emax at 4 g/ha (Myzus persicae [8]) [%] | Emax at 4 g/ha (Nilaparvata lugens) [%]
CNC(=O)N(C)c1ccc(S(C)(=O)=O)c(-c2nc3cc(C(F)(F)F)nnc3n2C)n1 [Example I-6] | 80 | 100 | 100 | 100 | 90 | 85 | – | – | – | – | – | – | – | – | – | –
CCS(=O)(=O)c1ccc(NC(=O)NC)nc1-c1nc2cc(C(F)(F)F)nnc2n1C [Example I-1, 1-{5-(ethylsulfonyl)-6-[7-methyl-3-(trifluoromethyl)-7H-imidazo[4,5-c]pyridazin-6-yl]pyridin-2-yl}-3-methylurea] | – | 100 | 90 | 100 | 100 | 70 | 100 | 100 | 100 | 90 | 100 | 67 | 83 | 100 | 90 | –
CCS(=O)(=O)c1ccc(N(C)C(=O)NC)nc1-c1nc2cc(C(F)(F)F)nnc2n1C [Example I-3] | – | 100 | 100 | 100 | – | – | 100 | 90 | 100 | 100 | 100 | – | – | – | – | 70
CCS(=O)(=O)c1ccc(NC(=O)N(C)C)nc1-c1nc2cc(C(F)(F)F)nnc2n1C [Example I-2] | – | 100 | 100 | 100 | 90 | 90 | 100 | 100 | 100 | 100 | 100 | – | 83 | 100 | – | –
